Experiments:
[1] = target: T1, HSV-1 protease (assemblin) (Human herpesvirus 1, UniProt P10210); assay: Enzymatic assay for HSV-1 protease (assemblin) inhibition (FP assay / HPLC assay); format: biochemical; settings: recombinant HSV-1 protease; 30 minute pre-incubation at room temperature; FP or HPLC format not stated; read-out: ENZYME IC50
T1 construct: encoding residues 1-288 of HSV-1 UL26 open reading frame and 32 heterologous amino acid; 6xHis (N); made in house
Method: Enzymatic Assay for HSV-1 Protease (Assemblin) Inhibition
Assemblin protease activity was determined using fluorescence polarization (FP). The fluorescent substrate was biotin-gamma-aminobutyrate -[…]-DTAF, based on the HSV-1release cleavage site. […] A change in molecular size of fluorescent substrate molecule, which was increased using avidin as a reaction stop reagent, allowed cleavage to be measured by FP. Potential protease inhibitors were dissolved in DMF and then diluted 5-fold in assay buffer. […] The enzyme was diluted to 21.3 ug/mL in assay buffer (1M NaCitrate, 50 mM NaPhosphate, pH 7.4, 100mM NaCl, 20% glycerol, 2 mM TECP) and 48.5 uL were added to each well. Following a 30 minute incubation at room temperature, 10 uL of 62.5 ug/mL substrate were added. After about 90 minute incubation at room temperature, 50 uL of 2 mg/mL avidin in phosphate buffer (50 mM Naphosphate, 100 mM NaCl, pH 7.4) were added to each well. The plates were read by a fluorescence polarization plate reader. Inhibitor potency was determined by comparison with incubations lacking inhibitor.
Assays were performed with the peptide substrate H-His-Thr-Tyr-Leu-Gln-Ala-Ser-Glu-Lys-Phe-Lys-Met-Trp-Gly-NH2 (Bachem). This substrate is a HSV-1-amide UL26 Open Reading Frame (242-255) and is derived from the release site of HSV-1 protease. HSV-1protease cleaves between alanine and serine. The product […] was quantified on HPLC using fluorescence detection of tryptophan residue. Enzyme was diluted to 4.3 ug/mL in assay buffer (1 M NaCitrate, 50 mM NaPhosphate, pH 7.3, 100 mM NaCl, 20% glycerol, 2 mM TCEP) and 48.5 uL were added to the tubes. Potential protease inhibitors were dissolved in DMF and then diluted 10-fold in assay buffer. 6.5 uL of inhibitor solution were added to each tube. Following a 30-minute incubation at room temperature, 10 uL of substrate in phosphate buffer (50 mM Naphosphate, 100 mM NaCl, pH 7.4) were added to all tubes. The final concentration of the substrate in the reaction mixtures was 10 uM. After a 15-minute incubation at room temperature, assays were quenched using 50 uL of 50% TCA. Inhibitor potency was determined by comparison with incubations lacking inhibitor, which under these conditions gave about 20% cleavage of substrate.
Recombinant HSV-1 Protease
HSV-1 protease was purified from baculovirus expressing a DNA construction encoding residues 1-288 of HSV-1 UL26 open reading frame and 32 heterologous amino acid. The construction also encoded six additional histidine residues at the amino terminus of the protease. These additional histidine residues provided an affinity ligand by which the protein was purified using Ni-NTA agarose gel (Qiagen). The purified protease was stored in stock solution (20 mM HEPES buffer, pH 8.5, containing 20% (v/v) glycerol). This stock was diluted with assay buffer to adequate concentration of enzymatic assay.
A specific substrate was synthesized based on the cleavage specificity of HSV-1 protease at the “release site” of the assembly protein (DiIanni, C. L., et al., J. Biol. Chem. 268, 2048, (1993)). The assembly protein release site has the sequence, HTYLQA*SEKFKMWG. The substrate used was biotin-gamma -aminobutyrate-HTYLQA*SERFRIK-DTAF which was prepared by standard peptide synthetic methods such as that described in Bodansky and Bodansky, “The Practice of Peptide Synthesis” (1984), and was stored as a stock solution at 2.5 mg/mL in DMF. This was diluted to 62.5 ug/mL with phosphate buffer (50 mM Naphosphate, […], pH 7.4) just before use.
The substrate was HSV-1-amide UL 26 Open Reading Frame (242-255), obtained from Bachem (Product No. M-2160).
An assay buffer (1 M NaCitrate, 50 mM NaPhosphate, pH 7.4, 100 mM NaCl, 20% glycerol, 2 mM TCEP) was used to dilute stock solutions of enzyme and inhibitors.

HSV-1 = assay: Antiviral assay: plaque reduction assay, HSV-1 in vero cells; format: cell-based, HSV-1 (vero cells, African green monkey kidney cell); settings: Human alphaherpesvirus 1, Vero, 72 h, read-out: ANTIVIRUS EC50
From the text: These complimentary assays tested the ability of a compound to inhibit the production of new virus and the toxicity of the compound to the host cells. It was important that both assays be performed simultaneously in order to compare the results directly since toxicity may indirectly reduce viral replication.
The antiviral assay was estimated by plaque reduction assay performed by following methods. 1×10^5 of vero cells (African green monkey kidney cell) in 48-well plates were over-night cultured and the medium of this culture was replaced with 200 μl of 2% FBS DMEM containing 2× the desired final cordon of test compounds or no compound as control. The cultures were added 50 μl of 2% FBS DMEM containing with about 50 plaque forming units of HSV-1and next 250 μl of 2% FBS DMEM containing 1% methylcellulose. These infected cultures were incubated at 37° C., 5% CO2 for 3 days until plaques was visible. The cells were fixed and stained simultaneously with 0.025% crystalviolet in 5% formalin solution and plaque were counted. The concentration of test compound which conferred 50% inhibition of plaque formation compared to no compound control was interpolated from the observed data and defined as IC50.

[2] = target: T2, Human leukocyte elastase (HLE) (Homo sapiens, UniProt P08246); assay: Human leukocyte elastase assay; format: biochemical; settings: 50 μM compound; 30 minutes pre-incubation
T2 construct: purchased CALBIOCHEM
T2 sequence (P08246 30-267): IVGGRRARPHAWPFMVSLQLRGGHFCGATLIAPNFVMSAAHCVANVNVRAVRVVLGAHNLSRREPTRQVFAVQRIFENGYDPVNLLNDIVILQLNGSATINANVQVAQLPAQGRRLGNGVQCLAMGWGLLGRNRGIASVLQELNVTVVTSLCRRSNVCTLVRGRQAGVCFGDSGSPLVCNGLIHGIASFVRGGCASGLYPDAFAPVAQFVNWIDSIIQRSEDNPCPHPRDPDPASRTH
Method: Human Leukocyte Elastase Assay
Human leukocyte elastase (HLE) (CALBIOCHEM) was dissolved in saline at 1 mg/ml and further diluted 1/10 in assay buffer (0.2 M Tris, pH 8.0) before use.
0.75 μl of test compound in DMF (or DMF alone), 50 μl of assay buffer and 50 μl of enzyme were added to 96 well plate, mixed and pre-incubated for 30 minutes at ambient temperature. Reaction was initiated by addition of 50 μl of 2.5 mM methoxysuccinyl-Ala-Ala-Pro-Val-p-nitroanilide (Sigma; 25 mM in DMSO diluted 1/10 in assay buffer before use). The increase in absorbance at 405 nm was monitored for 3 min. with BIO-RAD model 3550 microplate reader.

[3] = target: T3, Bovine pancreas α-chymotripsin (Bos taurus, UniProt P00766); assay: Chymotripsin assay; format: biochemical; settings: 50 μM compound; 30 minutes pre-incubation; read-out: INHIBITION AT 50 μM CHYMOTRYPSIN (%)
T3 construct: purchased Sigma type II; host or cells: bovine pancreas
Method: The chymotripsin assay was modified from the method of Delmar, et al. (Anal. Biochem. 99, 316-320 (1979)). Bovine pancreas α-chymotripsin(type II, Sigma) was dissolved in 0.001 N HCl at 1 mg/ml and further diluted 1/1000 in assay buffer (0.1 M Tris, pH 7.8 containing 0.1 M CaCl2) before use. 0.75 μl of test compound in DMF (or DMF alone), 50 μl of assay buffer and 50 μl of enzyme were added to 96 wells plates, mixed and pre-incubated for 30 minutes at ambient temperature. Reaction was initiated by addition of 50 μl of 0.2 mM N-succinyl-Ala-Ala-Pro-Phe-p-nitroanilide (Sigma; 2 mM in DMSO diluted 1/10 in assay buffer before use). The increase in absorbance at 405 nm was monitored for 3 minutes with BIO-RAD model 3550 microplate-reader.

T1 sequence (P10210 1-288): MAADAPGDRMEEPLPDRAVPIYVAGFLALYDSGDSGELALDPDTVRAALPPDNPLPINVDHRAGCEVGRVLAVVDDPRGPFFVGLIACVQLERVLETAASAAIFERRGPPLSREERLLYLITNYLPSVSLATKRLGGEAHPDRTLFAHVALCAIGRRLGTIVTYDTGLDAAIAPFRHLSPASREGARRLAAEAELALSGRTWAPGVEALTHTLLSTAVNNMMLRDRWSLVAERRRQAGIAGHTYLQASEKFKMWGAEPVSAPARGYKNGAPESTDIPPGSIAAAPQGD

SMILES | IC50 [1] | EC50 (HSV-1) | inhibition at 50 µM [2] | inhibition at 50 µM [3]
Cc1c(NC(=O)c2c(F)cc(F)cc2F)ccc2nc(N(C(C)C)C(C)C)oc(=O)c12 [Compound 12, 6-[(2,4,6-Trifluorobenzoyl)amino]-5-methyl-2(diisopropylamino)-4H-3,1-benzoxazine-4-one] | 6.3 µM | 6.8 µM | 13.4% | 22.4%
Cc1c(NC(=O)OC(C)(C)C)ccc2nc(N(CCC#N)C3CC3)oc(=O)c12 [Compound 13, 6-[[(1,1-Dimethylethoxy)carbonyl]amino]-5-methyl-2-[(2-cyanoethyl)-(cyclopropyl)amino]-4H-3,1-benzoxazin-4-one] | 3.9 µM | 7.6 µM | 0% | 2.2%
Cc1c(NC(=O)OC(C)(C)C)ccc2nc(N3CCN(C(=O)c4ccco4)CC3)oc(=O)c12 [Compound 14] | 2 µM | 1.6 µM | 46.3% | 0%
Cc1c(NC(=O)OC(C)(C)C)ccc2nc(N3CCN(S(=O)(=O)c4ccccc4)CC3)oc(=O)c12 [Compound 15, 6-[[(1,1-Dimethylethoxy)carbonyl]amino]-5-methyl-2-[(4-benzenesulfonyl)-piperazinyl]-4H-3,1-benzoxazin-4-one] | 1.7 µM | 2.8 µM | 0% | 0%
CC(=O)N1CCN(c2nc3ccc(NC(=O)OC(C)(C)C)c(C)c3c(=O)o2)CC1 [Compound 16, 6-[[(1,1-Dimethylethoxy)carbonyl]amino]-5-methyl-2-[4-(1-acetylpiperadinyl)]-4H-3,1-benzoxazin-4-one] | 2.3 µM | 3.6 µM | 1.4% | 0%
Cc1c(NC(=O)OC(C)(C)C)ccc2nc(N3CCN(C(=O)c4cccs4)CC3)oc(=O)c12 [Compound 17, 6-[[(1,1-Dimethylethoxy)carbonyl]amino]-5-methyl-2-[(4-thenoyl)piperzinyl]-4H-3,1-benzoxazin-4-one] | 4.2 µM | 4.1 µM | 0% | 0%
Cc1c(NC(=O)OC(C)(C)C)ccc2nc(N(C)Cc3ccccn3)oc(=O)c12 [Compound 18, 6-[[(1-Dimethylethoxy)carbonyl]amino]-5-methyl-2-[methyl(2-pyridylmethyl)-amino]-4H-3,1-benzoxazin-4-one] | 1.5 µM | 15.1 µM | 28.7% | 0%
